Here are results for four molecules from patent publication US20240300932A1, “N-PHENYLIMINE DERIVATIVE AND PREPARATION METHOD AND USE THEREOF” (Guizhou University, priority 2023, published 2024).

Common to all, as to test: Post-emergence herbicidal activity test (stem and leaf spray, pot culture)
Holding throughout (type): in vivo
Details in all cases: 3 weeks after spraying

In assay [1] the test system is Abutilon theophrasti. The method in brief:
(§1)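 Seeds soaked 6 h at 25 °C, germinated at 28 °C, sown in loam pots and thinned to 10 plants/pot. At 2–3 leaves, plants received a single spray-tower application of 10, 5 or 2.5 g/mu. Fresh-weight control was graded 0–5 after 3 weeks.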

The test system of assay [2] is Amaranthus retroflexus. The method in brief:
as §1

Assay [3] concerns Echinochloa crusgalli. An outline of the steps:
as §1

In assay [4] the test system is Portulaca oleracea. An outline of the steps: as §1
The subject of assay [5] is Setaria viridis. An outline of the steps:
as §1

Assay [6] has as its system Trifoliumre pensL. The method in brief: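 Rates of 10, 5 and 2.5 g/mu were applied in a single spray-tower treatment to 2–3-leaf plants, thinned to 10 per pot. Formulation: acetone solution, Tween 80, 1.5 L/ha methyl oleate synergist. Weed response assessed after 3 further greenhouse weeks; mean of three experiments.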

With `O=C1C2=C(CCCC2)C(=O)N1c1cc(OCc2nnc(-c3ccccc3Br)o2)c(Cl)cc1F` [Compound B6], the “Post-emergence herbicidal activity, A. theophrasti (grade)” value in assay [1] (dosage 2.5 g/mu), in assay [1] (dosage 5 g/mu) and in assay [1] (dosage 10 g/mu) was 5 (Grade 5: the growth control rate is greater than or equal to 85%) in each case. The “Post-emergence herbicidal activity, A. retroflexus (grade)” value in assay [2] (dosage 2.5 g/mu), in assay [2] (dosage 5 g/mu) and in assay [2] (dosage 10 g/mu) was 5 (Grade 5: the growth control rate is greater than or equal to 85%) throughout. For the same molecule, the “Post-emergence herbicidal activity, E. crusgalli (grade)” value is 1 (Grade 1: the growth control rate is greater than or equal to 5% and less than 20%) in assay [3] (dosage 2.5 g/mu); 2 (Grade 2: the growth control rate is greater than or equal to 20% and less than 40%) in assay [3] (dosage 5 g/mu); 3 (Grade 3: the growth control rate is greater than or equal to 40% and less than 60%) in assay [3] (dosage 10 g/mu). The “Post-emergence herbicidal activity, P. oleracea (grade)” value in assay [4] (dosage 2.5 g/mu), in assay [4] (dosage 5 g/mu) and in assay [4] (dosage 10 g/mu) was 5 (Grade 5: the growth control rate is greater than or equal to 85%) in each case. The “Post-emergence herbicidal activity, S. viridis (grade)” value is 2 (Grade 2: the growth control rate is greater than or equal to 20% and less than 40%) in assay [5] (dosage 2.5 g/mu); 3 (Grade 3: the growth control rate is greater than or equal to 40% and less than 60%) in assay [5] (dosage 5 g/mu); 4 (Grade 4: the growth control rate is greater than or equal to 60% and less than 85%) in assay [5] (dosage 10 g/mu). Moreover, the “Post-emergence herbicidal activity, Trifoliumre pensL. (grade)” value in assay [6] (dosage 2.5 g/mu), in assay [6] (dosage 5 g/mu) and in assay [6] (dosage 10 g/mu) was 5 (Grade 5: the growth control rate is greater than or equal to 85%) in each case.
For the molecule `O=C1C2=C(CCCC2)C(=O)N1c1cc(OCc2nnc(-c3ccccc3I)o2)c(Cl)cc1F` [Compound B7], the “Post-emergence herbicidal activity, A. theophrasti (grade)” value in assay [1] (dosage 2.5 g/mu), in assay [1] (dosage 5 g/mu) and in assay [1] (dosage 10 g/mu) was 5 (Grade 5: the growth control rate is greater than or equal to 85%) in each case. Also, the “Post-emergence herbicidal activity, A. retroflexus (grade)” value in assay [2] (dosage 2.5 g/mu), in assay [2] (dosage 5 g/mu) and in assay [2] (dosage 10 g/mu) was 5 (Grade 5: the growth control rate is greater than or equal to 85%) in each case. For the same molecule, the “Post-emergence herbicidal activity, E. crusgalli (grade)” value in assay [3] (dosage 2.5 g/mu) was 1 (Grade 1: the growth control rate is greater than or equal to 5% and less than 20%); in assay [3] (dosage 5 g/mu) it was 2 (Grade 2: the growth control rate is greater than or equal to 20% and less than 40%); in assay [3] (dosage 10 g/mu) it was 3 (Grade 3: the growth control rate is greater than or equal to 40% and less than 60%). Further, the “Post-emergence herbicidal activity, P. oleracea (grade)” value in assay [4] (dosage 2.5 g/mu), in assay [4] (dosage 5 g/mu) and in assay [4] (dosage 10 g/mu) was 5 (Grade 5: the growth control rate is greater than or equal to 85%) each time. Moreover, the “Post-emergence herbicidal activity, S. viridis (grade)” value in assay [5] (dosage 2.5 g/mu) was 2 (Grade 2: the growth control rate is greater than or equal to 20% and less than 40%); in assay [5] (dosage 5 g/mu) it was 3 (Grade 3: the growth control rate is greater than or equal to 40% and less than 60%); in assay [5] (dosage 10 g/mu), 4 (Grade 4: the growth control rate is greater than or equal to 60% and less than 85%). Further, the “Post-emergence herbicidal activity, Trifoliumre pensL. (grade)” value in assay [6] (dosage 2.5 g/mu), in assay [6] (dosage 5 g/mu) and in assay [6] (dosage 10 g/mu) was 5 (Grade 5: the growth control rate is greater than or equal to 85%) throughout.
For the molecule `O=C1C2=C(CCCC2)C(=O)N1c1cc(OCc2nnc(-c3ccccc3[N+](=O)[O-])o2)c(Cl)cc1F` [Compound B8], the “Post-emergence herbicidal activity, A. theophrasti (grade)” value in assay [1] (dosage 2.5 g/mu), in assay [1] (dosage 5 g/mu) and in assay [1] (dosage 10 g/mu) was 5 (Grade 5: the growth control rate is greater than or equal to 85%) throughout. Besides, the “Post-emergence herbicidal activity, A. retroflexus (grade)” value in assay [2] (dosage 2.5 g/mu), in assay [2] (dosage 5 g/mu) and in assay [2] (dosage 10 g/mu) was 5 (Grade 5: the growth control rate is greater than or equal to 85%) in each case. Besides, the “Post-emergence herbicidal activity, E. crusgalli (grade)” value is 1 (Grade 1: the growth control rate is greater than or equal to 5% and less than 20%) in assay [3] (dosage 2.5 g/mu); 2 (Grade 2: the growth control rate is greater than or equal to 20% and less than 40%) in assay [3] (dosage 5 g/mu); 3 (Grade 3: the growth control rate is greater than or equal to 40% and less than 60%) in assay [3] (dosage 10 g/mu). Besides, the “Post-emergence herbicidal activity, P. oleracea (grade)” value in assay [4] (dosage 2.5 g/mu), in assay [4] (dosage 5 g/mu) and in assay [4] (dosage 10 g/mu) was 5 (Grade 5: the growth control rate is greater than or equal to 85%) throughout. For the same molecule, the “Post-emergence herbicidal activity, S. viridis (grade)” value in assay [5] (dosage 2.5 g/mu) is 2 (Grade 2: the growth control rate is greater than or equal to 20% and less than 40%); in assay [5] (dosage 5 g/mu) it was 3 (Grade 3: the growth control rate is greater than or equal to 40% and less than 60%); in assay [5] (dosage 10 g/mu), 4 (Grade 4: the growth control rate is greater than or equal to 60% and less than 85%). Moreover, the “Post-emergence herbicidal activity, Trifoliumre pensL. (grade)” value in assay [6] (dosage 2.5 g/mu), in assay [6] (dosage 5 g/mu) and in assay [6] (dosage 10 g/mu) was 5 (Grade 5: the growth control rate is greater than or equal to 85%) each time.
Regarding `O=C1C2=C(CCCC2)C(=O)N1c1cc(OCc2nnc(-c3cccc(Br)c3)o2)c(Cl)cc1F` [Compound B10], the “Post-emergence herbicidal activity, A. theophrasti (grade)” value was 4 (Grade 4: the growth control rate is greater than or equal to 60% and less than 85%) in assay [1] (dosage 2.5 g/mu); 5 (Grade 5: the growth control rate is greater than or equal to 85%) in assay [1] (dosage 5 g/mu); 5 (Grade 5: the growth control rate is greater than or equal to 85%) in assay [1] (dosage 10 g/mu). Also, the “Post-emergence herbicidal activity, A. retroflexus (grade)” value was 4 (Grade 4: the growth control rate is greater than or equal to 60% and less than 85%) in assay [2] (dosage 2.5 g/mu); 5 (Grade 5: the growth control rate is greater than or equal to 85%) in assay [2] (dosage 5 g/mu); 5 (Grade 5: the growth control rate is greater than or equal to 85%) in assay [2] (dosage 10 g/mu). For the same molecule, the “Post-emergence herbicidal activity, E. crusgalli (grade)” value in assay [3] (dosage 2.5 g/mu) is 1 (Grade 1: the growth control rate is greater than or equal to 5% and less than 20%); in assay [3] (dosage 5 g/mu), 2 (Grade 2: the growth control rate is greater than or equal to 20% and less than 40%); in assay [3] (dosage 10 g/mu) it was 3 (Grade 3: the growth control rate is greater than or equal to 40% and less than 60%). The “Post-emergence herbicidal activity, P. oleracea (grade)” value in assay [4] (dosage 2.5 g/mu), in assay [4] (dosage 5 g/mu) and in assay [4] (dosage 10 g/mu) was 5 (Grade 5: the growth control rate is greater than or equal to 85%) each time. In addition, the “Post-emergence herbicidal activity, S. viridis (grade)” value is 2 (Grade 2: the growth control rate is greater than or equal to 20% and less than 40%) in assay [5] (dosage 2.5 g/mu); 3 (Grade 3: the growth control rate is greater than or equal to 40% and less than 60%) in assay [5] (dosage 5 g/mu); 4 (Grade 4: the growth control rate is greater than or equal to 60% and less than 85%) in assay [5] (dosage 10 g/mu). The “Post-emergence herbicidal activity, Trifoliumre pensL. (grade)” value in assay [6] (dosage 2.5 g/mu), in assay [6] (dosage 5 g/mu) and in assay [6] (dosage 10 g/mu) was 5 (Grade 5: the growth control rate is greater than or equal to 85%) throughout.
